Assay results as given in paper PMC11641860 (International Journal of Molecular Sciences, 2024).

Tests used:
GRP78 [1] = assay: Western blot of GRP78 in Caco-2 cells; assay type: cell-based, human; details: Caco-2, 24 h
Procedure: (§1) Western blot analyses were performed to detect protein levels and the expression of several proteins after treatments with 4-OP. After treatments, cells were mechanically harvested and lysed in a buffer containing the following: 20 mM Tris-HCl, pH 7.5, 150 mM NaCl, 1 mM EDTA, 1 mM dithiothreitol, 0.1% sodium dodecyl sulfate, 1% Triton X-100, 1 mM orthovanadate and an inhibitor cocktail (all from Merck). The protein mixtures were resolved in a polyacrylamide denaturant gel and then electrotransferred to a polyvinylidene difluoride (PVDF) membrane (Microtech, Naples, Italy) by using the Trans-Blot Turbo Transfer System (Bio-Rad Laboratories, Milan, Italy). After a blocking step with 5% skimmed milk in Tris-buffered saline (TBS), membranes were incubated with the following primary antibodies, diluted 1:1000 in T-TBS-1% milk: mouse anti-p53 (Santa Cruz, CA, USA); mouse anti-GRP78 (Invitrogen, Milan, Italy); rabbit anti-LC3 (Invitrogen); mouse anti-caspase 3 (Invitrogen); mouse anti-p62 (Invitrogen); rabbit anti-SOD (Elabscience, Houston, TX, USA); rabbit anti-CAT (Elabscience). For normalization, a mouse anti-GAPDH (Santa Cruz) diluted 1:4000 in T-TBS-1% milk was used.

GRP78 [2] = assay: Western blot of GRP78 in HepG2 cells; assay type: cell-based, human; details: HepG2, 24 h, higher induction at 100 μM
Procedure: as §1

GRP78 [3] = assay: Western blot of GRP78 in MRC5 cells; assay type: cell-based, human; details: MRC5, 24 h
Procedure: as §1

p53 = assay: Western blot of p53; assay type: cell-based, human; details: HepG2, 24 h, higher concentrations used
Procedure: as §1

p62, LC3-II = assay: Western blot of autophagic markers p62 and LC3-II; assay type: cell-based, human
Procedure: as §1

CAT, SOD = assay: Western blot of CAT and SOD; assay type: cell-based, human
Procedure: as §1

HepG2 cells [4] = assay: LC3 immunofluorescence staining; assay type: cell-based, human; details: HepG2, 24 h, compared with vehicle
Procedure: Then, coverslips were incubated for 1 h with the anti-LC3 rabbit antibody (1:100, in 1% bovine albumin serum) and then with an anti-rabbit tetramethylrhodamine-conjugated antibody (1:100, in 0.1% bovine serum albumin) (Thermo Fisher Scientific). After washing, coverslips were mounted with Mowiol and observed with an Olympus CKX41 fluorescent microscope (Olympus Italia srl, Segrate, Italy) and processed with the Olympus CKX41 software (cellSens Dimension 1.5).

XBP1 = XBP1 splicing detection by conventional PCR; assay type: cell-based, human; details: HepG2, 4 h, 100 μM
Procedure: To obtain cDNA, 1 μg of RNA was retro-transcribed employing the QuantiTect Reverse Transcription Kit (Qiagen, Milan, Italy). Finally, a conventional PCR was performed to amplify the unspliced and the spliced form for XBP1, with the following primers: 5′-[…]-3′ and 5′-[…]-3′, as previously reported. Amplified cDNA was run on a 2.5% agarose gel and stained with ethidium bromide.

HepG2 cells [5] = assay: Apoptosis: cleaved caspase 3 Western blot and TUNEL assay; assay type: cell-based, human; details: HepG2, caspase-3 8 h, TUNEL 24 h
Procedure: as §1
Microscope observation and image acquisition were performed as described above.

type 2 transglutaminase = assay: Type 2 transglutaminase activity in Caco-2 cells in Ca2+-free condition; assay type: cell-based, human; details: Caco-2, Ca2+-free condition, preliminary
Description: It has often been reported that apoptosis induced by EDCs can be caused by an unsolved ER-stress.

HepG2 cells [6] = assay: cells; assay type: cell-based; details: Homo sapiens; HepG2, treated for 24 h, mean (SE); read-out: calculated IC50
Procedure: (§2) To evaluate cell viability, an MTT assay was performed. […] Cell viability was directly proportional to registered absorbance and was expressed as relative viability with respect to vehicle-treated cells.

MRC5 cells = assay: cells; assay type: cell-based; details: Homo sapiens; MRC5, treated for 24 h, mean (SE); read-out: calculated IC50
Procedure: as §2

Caco-2 cells = assay: cells; assay type: cell-based; details: Homo sapiens; Caco-2, treated for 24 h, mean (SE); read-out: calculated IC50
Procedure: as §2

HaCat cells = assay: cells; assay type: cell-based; details: Homo sapiens, treated for 24 h, mean (SE), read-out: calculated IC50
Procedure: as §2

HEK 293 cells = assay: cells; assay type: cell-based; details: Homo sapiens, HEK293; HEK 293, treated for 24 h, mean (SE); read-out: calculated IC50
Procedure: as §2

CCCCCCCCc1ccc(O)cc1 [4-OP, 4-octylphenol]
GRP78 expression (GRP78 [1]): less evident
GRP78 expression (GRP78 [2]): increase in a dose-dependent manner
GRP78 expression (GRP78 [3]): markedly induced
p53 expression (p53): decreased
p62 level (p62, LC3-II; HepG2, 4 h): decreased
LC3-II level on adding Baf A1 (p62, LC3-II; HepG2, 4 h 4-OP then further 20 h Baf A1 50 nM): further accumulation of LC3-II
LC3-II level (p62, LC3-II; HepG2, 24 h): increased
CAT level (CAT, SOD; HepG2, 4 h): did not vary
SOD level (CAT, SOD; HepG2, 4 h, 100 μM): reduction
SOD expression level (CAT, SOD; HepG2, 18 h, 25 μM, vs vehicle-treated cells): lower
SOD expression level (CAT, SOD; HepG2, 18 h, 50 μM): increased
CAT protein level (CAT, SOD; HepG2, 18 h, 50 μM, compared to the control): significantly more expressed
autophagosomes (LC3 perinuclear puncta) (HepG2 cells [4]): accumulation of autophagosomes
XBP1 spliced form (XBP1): splicing was clear
apoptosis (cleaved caspase 3, chromatin fragmentation) (HepG2 cells [5]): able to induce apoptosis

C[C@H](CCC(=O)O)C[C@H](C)C[C@H](C)C(=O)/C=C(\O)[C@H](C)C[C@H](C)C/C=C/[C@@H](C)[C@@H](O)[C@@H](C)[C@@H](O)C[C@@H]1CC[C@@](C)([C@H]2CC[C@@](C)([C@@H](C)O)O2)O1 [ionomycin]
increase of transglutaminase activity (type 2 transglutaminase): did not increase

CCCCCCCCCc1ccc(O)cc1 [4-NP, 4-nonylphenol]
IC50 (HepG2 cells [6]): 83.3 µM
IC50 (MRC5 cells): 75.8 µM
IC50 (Caco-2 cells): 93.3 µM
IC50 (HaCat cells): 77.4 µM
IC50 (HEK 293 cells): 62.6 µM
